Assay results taken from ChEMBL document CHEMBL6153171, “Redefining Antifungal Treatment: The Innovation of Metal-Based Compounds” (2025).
In brackets after ≈: the same amount, converted by molar mass.

Experiments:
Type in all cases: functional
Candida tropicalis [1] = assay: Antifungal activity against Candida tropicalis ATCC 1369 assessed as inhibition of fungal growth by CLSI protocol based microdilution method
Candida tropicalis [2] = assay: Anti-fungal activity against Candida tropicalis assessed as inhibition of fungal growth
Trichophyton violaceum = assay: Antifungal activity against Trichophyton violaceum
Epidermophyton floccosum = assay: Antifungal activity against Epidermophyton floccosum
Nakaseomyces glabratus = assay: Antifungal activity against Candida glabrata assessed as reduction in fungal growth; set-up: concentration or dose not given beside the values
Candida albicans [3] = assay: Antifungal activity against Candida albicans ATCC 10231 assessed as fungal growth inhibition incubated for 24 hrs by CLSI protocol based microbroth dilution assay
Candida albicans [4] = assay: Antifungal activity against Candida albicans ATCC 10231 assessed as growth inhibition measured after 48 hrs by CLSI based method
Trichophyton tonsurans = assay: Antifungal activity against Trichophyton tonsurans
Trichophyton rubrum = assay: Antifungal activity against Trichophyton rubrum assessed as fungal growth inhibition incubated for 48 hrs by microplate reader assay
[5] = test system: Trichophyton mentagrophytes; assay: Antifungal activity against Trichophyton mentagrophytes
[6] = test system: Trichophyton interdigitale; assay: Antifungal activity against Trichophyton interdigitale
Candida albicans [7] = assay: Antifungal activity against Candida albicans assessed as reduction in microbial growth
Candida albicans [8] = assay: Antifungal activity against fluconazole-resistant Candida albicans MFBF 11100 assessed as inhibition of fungal growth incubated for 48 hrs by liquid medium dilution method
Candida albicans [9] = assay: Antifungal activity against fluconazole-resistant Candida albicans ATCC 10213 assessed as inhibition of fungal growth incubated for 48 hrs by liquid medium dilution method
Cryptococcus neoformans [10] = assay: Antifungal activity against Cryptococcus neoformans ATCC 34877 assessed as reduction in fungal growth incubated for 72 hrs by liquid based microdilution method
Cryptococcus neoformans [11] = assay: Antifungal activity against Cryptococcus neoformans H99 assessed as reduction in fungal growth incubated for 48 hrs by liquid based microdilution method
[12] = Antifungal activity against Cryptococcus gattii VGI ATCC 14116 assessed as reduction in fungal growth incubated for 72 hrs by liquid based microdilution method
[13] = Antifungal activity against Cryptococcus gattii VGI ATCC LMM 818 assessed as reduction in fungal growth incubated for 72 hrs by liquid based microdilution method
Cryptococcus neoformans [14] = assay: Antifungal activity against Cryptococcus neoformans ATCC 34877 assessed as reduction in fungal growth incubated for 48 hrs by liquid based microdilution method
Aspergillus flavus [15] = assay: Antifungal activity against Aspergillus flavus assessed as fungal growth inhibition
Candida albicans [16] = assay: Antifungal activity against Candida albicans assessed as fungal growth inhibition
Aspergillus flavus [17] = assay: Antifungal activity against Aspergillus flavus assessed as reduction in fungal growth incubated for 24 hrs by two-fold serial dilution method; set-up: scale not given: the % may be the effect or the level left
Candida albicans [18] = assay: Antifungal activity against Candida albicans ATCC 2091 assessed as reduction in fungal growth
Microsporum canis = assay: Antifungal activity against Microsporum canis assessed as inhibition of fungal growth; set-up: scale not given: the % may be the effect or the level left
Candida albicans [19] = assay: Antifungal activity against Candida albicans assessed as fungal growth inhibition at 5 ug/ml incubated for 24 hrs by CLSI protocol based microbroth dilution assay relative to control; set-up: scale not given: the % may be the effect or the level left; settings: dose 5 µg/ml
Candida albicans [20] = assay: Antifungal activity against Candida albicans
Aspergillus flavus [21] = assay: Antifungal activity against Aspergillus flavus
Candida albicans [22] = assay: Antifungal activity against Candida albicans SC5314 assessed as reduction in fungal growth incubated for 72 hrs by broth micro-dilution method
Aspergillus flavus [23] = assay: Antifungal activity against Aspergillus flavus ATCC 16870 assessed as inhibition of growth incubated for 48 hrs by two-fold serial dilution method

Cc1ccc(-c2ccc(-c3ccccn3)nc2)cc1
MIC (Candida tropicalis [1]): ≤ 20.4 µM
MIC (Candida tropicalis [2]): ≤ 12.7 µM

c1ccc(-c2ccc(-c3ccccn3)nc2)cc1
MIC (Trichophyton violaceum): 26.9 µM (≈ 6.25 µg/mL)
MIC (Epidermophyton floccosum): 26.9 µM (≈ 6.25 µg/mL)

Cc1ccc(S(=O)(=O)Nc2ncccn2)cc1
Activity (Nakaseomyces glabratus): 53%

C/C(=N\NC(=S)Nc1ccc(I)cc1)c1ccccn1
MIC (Candida albicans [3]): 6.2 µM (≈ 2.46 µg/mL)
MIC (Candida albicans [4]): 10.7 µM (≈ 4.24 µg/mL)

C/C(=N\NC(=S)Nc1ccc([N+](=O)[O-])cc1)c1ccccn1
MIC (Candida albicans [4]): 10.7 µM (≈ 3.37 µg/mL)

NS(=O)(=O)c1ccc(/N=C/c2cc(Cl)ccc2O)cc1
Activity (Nakaseomyces glabratus): 47%

O=C(O)c1c(O)c(F)c(F)c(F)c1F
MIC (Trichophyton tonsurans): 25 µg/mL (≈ 119 µM)
MIC (Trichophyton rubrum): 25 µg/mL (≈ 119 µM)
MIC [5]: 25 µg/mL (≈ 119 µM)
MIC [6]: 25 µg/mL (≈ 119 µM)

O=C(O)c1cc(F)c(F)c(F)c1O
MIC (Candida albicans [7]): 50 µg/mL

COc1ccc(/C=N/NC(=O)c2cccnc2)c(O)c1
IC90 (Candida albicans [8]): 100 nM
IC90 (Candida albicans [9]): 180 nM

NC(=S)N/N=C(\N)c1ccccn1
MIC90 (Cryptococcus neoformans [10]): 26.3 µM (≈ 5.13 µg/mL)
MIC90 (Cryptococcus neoformans [11]): 13.1 µM (≈ 2.55 µg/mL)
MIC90 [12]: 26.3 µM (≈ 5.13 µg/mL)
MIC90 [13]: 52.5 µM (≈ 10.3 µg/mL)

CCNC(=S)N/N=C(\N)c1ccccn1
MIC90 (Cryptococcus neoformans [11]): 13.1 µM (≈ 2.92 µg/mL)

CNC(=S)N/N=C(\N)c1ccccn1
MIC90 (Cryptococcus neoformans [10]): 52 µM (≈ 10.9 µg/mL)
MIC90 (Cryptococcus neoformans [14]): 2.01 µM (≈ 0.42 µg/mL)
MIC90 [13]: 52 µM (≈ 10.9 µg/mL)

O=c1cc(O)c2c(=O)[nH]c3ccccc3c2o1
MIC (Aspergillus flavus [15]): 226 µM (≈ 51.7 µg/mL)
MIC (Candida albicans [16]): 233 µM (≈ 53.4 µg/mL)

CCCN(CCC)C(=S)NC(=O)c1ccc(Br)o1
Activity (Aspergillus flavus [17]): 52%
Activity (Nakaseomyces glabratus): 42%

O=C1N[C@@H](Cc2ccc(/N=C/c3ccccc3O)cc2)CO1
MIC (Candida albicans [18]): 12.5 µg/mL (≈ 42.2 µM)

CCN(C(=S)NC(=O)c1ccc(Br)o1)C(C)C
Activity (Aspergillus flavus [17]): 50%

CCCN(CCC)C(=S)NC(=O)c1ccc(C)s1
Activity (Microsporum canis): 63%

CNCCC/N=C/c1c(O)ccc2c(C)cc(=O)oc12
MIC (Candida albicans [18]): 12.5 µg/mL (≈ 45.6 µM)

CCCN(CCC)C(=S)NC(=O)c1cccs1
Activity (Candida albicans [19]): 50%

CCN(C(=S)NC(=O)c1cccs1)C(C)C
Activity (Candida albicans [19]): 53%
Activity (Nakaseomyces glabratus): 43%

CCN(C(=S)NC(=O)c1ccc(C)s1)C(C)C
Activity (Aspergillus flavus [17]): 57%
Activity (Nakaseomyces glabratus): 62%

Oc1ccccc1/N=N/c1ccc(O)c2ccccc12
MIC (Candida albicans [20]): 50 µg/mL (≈ 189 µM)
MIC (Aspergillus flavus [21]): 6.25 µg/mL (≈ 23.6 µM)
MIC (Candida albicans [22]): 6.25 µg/mL (≈ 23.6 µM)
MIC (Aspergillus flavus [23]): 6.25 µg/mL (≈ 23.6 µM)

Oc1ccccc1/C=N/c1ccc(Cn2cncn2)cc1
MIC (Candida albicans [18]): 12.5 µg/mL (≈ 44.9 µM)
